Source: patent publication US20250222146A1, “Radiopharmaceuticals Targeting Somatostatin Receptor 2 and Uses Thereof” (RayzeBio, Inc., priority 2023, published 2025)
Numbered stars: 1 amine (or outer) side, 2 acyl side, 3 side chain; on linkers, the order of the positions; unused ones are H or OH. Square brackets hold non-standard residues; d marks the D form. Side chains are listed from the residue outwards. Peptide text beside a SMILES is read from it. * marks the point of attachment. X10 = O=C(CN1CCN2CCN3CCN(CC1)CC(=O)[O][Lu]([O]C(=O)C2)[O]C(=O)C3)NCC12CCC(C(=O)*)(CC1)CC2; X14 = O=C(CN1CCN2CCN3CCN(CC1)CC(=O)[O][Lu]([O]C(=O)C2)[O]C(=O)C3)NCC1CCC(C(=O)*)CC1; X12 = O=C1CN2CCN3CCN(CC(=O)N4CCC(CC(=O)*)CC4)CCN(CC2)CC(=O)[O][Lu]([O]1)[O]C(=O)C3; X24 = O=C1CN2CCN3CCN(CC(=O)N4CC(CC(=O)*)C4)CCN(CC2)CC(=O)[O][Lu]([O]1)[O]C(=O)C3; DOTA(Lu) = O=C1CN2CCN3CCN(CC(=O)*)CCN(CC2)CC(=O)[O][Lu]([O]1)[O]C(=O)C3; X7 = O=C1CN2CCN3CCN(CC2)[C@H](CCC(=O)*)C(=O)[O][Ga]([O]1)[O]C(=O)C3; Ala(piperidin-4-yl) = O=C([C@H](CC1CCN([*:3])CC1)N[*:1])[*:2]; dTrp(βS-Me) = C[C@@H](c1c[nH]c2ccccc12)[C@@H](N)C(=O)O; X11 = O=C1CN2CCN(CCN(CC(=O)*)CC2)CC(=O)[O][Ga+][O]1; X8 = O=C([C@@H](Cc1n[nH]c2ccccc12)N[*:1])[*:2]; NMeLys(Me) = CNCCCC[C@H](NC)C(=O)O; Trx = NC[C@H]1CC[C@H](C(=O)O)CC1; NMeK = CN[C@@H](CCCCN)C(=O)O

Molecular target: SSTR2 (Homo sapiens, UniProt P30874)
Sequence (P30874 whole entry): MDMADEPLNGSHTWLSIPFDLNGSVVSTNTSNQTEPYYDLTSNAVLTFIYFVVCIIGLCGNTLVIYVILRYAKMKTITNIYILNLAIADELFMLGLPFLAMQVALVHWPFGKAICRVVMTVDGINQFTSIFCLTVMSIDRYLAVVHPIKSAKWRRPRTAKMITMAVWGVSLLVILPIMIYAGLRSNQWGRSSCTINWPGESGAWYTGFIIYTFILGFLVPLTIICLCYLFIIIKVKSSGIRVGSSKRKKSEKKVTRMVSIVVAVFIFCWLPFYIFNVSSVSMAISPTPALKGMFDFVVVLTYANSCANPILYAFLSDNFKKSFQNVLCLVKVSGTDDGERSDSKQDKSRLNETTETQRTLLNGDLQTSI
Assay: SSTR binding affinity by radioligand binding competition assay ([125I]-Tyr11-Somatostatin, membrane extracts)
Conditions: radioligand competition, [125I]-Tyr11-Somatostatin 0.1 nM, membrane extracts; Ki from IC50 by Cheng Prusoff; read-out: SSTR2 Ki

SMILES | Ki [nM]
C[C@@H](O)[C@@H]1NC(=O)[C@H](CC2CCNCC2)NC(=O)[C@@H]([C@@H](C)c2c[nH]c3ccccc23)NC(=O)[C@H](Cc2ccc(O)cc2)NC(=O)[C@H](CCCCNC(=O)CC2CCN(C(=O)CN3CCN4CCN5CCN(CC3)CC(=O)[O][Lu]([O]C(=O)C5)[O]C(=O)C4)CC2)N(C)C(=O)[C@H](Cc2ccccc2)NC1=O [RB-0006458] (cyclo(F[NMeK](X12)Y[dTrp(βS-Me)][Ala(piperidin-4-yl)]T)) | 3.33 to 10
C[C@@H](O)[C@@H]1NC(=O)[C@H](CC2CCNCC2)NC(=O)[C@@H]([C@@H](C)c2c[nH]c3ccccc23)NC(=O)[C@H](Cc2ccc(O)cc2)NC(=O)[C@H](CCCCNC(=O)CC2CN(C(=O)CN3CCN4CCN5CCN(CC3)CC(=O)[O][Lu]([O]C(=O)C5)[O]C(=O)C4)C2)N(C)C(=O)[C@H](Cc2ccccc2)NC1=O [RB-0006461] (cyclo(F[NMeK](X24)Y[dTrp(βS-Me)][Ala(piperidin-4-yl)]T)) | 3.33 to 10
C[C@@H](O)[C@@H]1NC(=O)[C@H](CC2CCNCC2)NC(=O)[C@@H]([C@@H](C)c2c[nH]c3ccccc23)NC(=O)[C@H](Cc2ccc(O)cc2)NC(=O)[C@H](CCCCNC(=O)C2CCC(CNC(=O)CN3CCN4CCN5CCN(CC3)CC(=O)[O][Lu]([O]C(=O)C4)[O]C(=O)C5)CC2)N(C)C(=O)[C@H](Cc2ccccc2)NC1=O (stereo partly shown) [RB-0006464] (cyclo(F[NMeK](X14)Y[dTrp(βS-Me)][Ala(piperidin-4-yl)]T)) | 1 to 3.33
C[C@@H](O)[C@@H]1NC(=O)[C@H](CC2CCNCC2)NC(=O)[C@@H]([C@@H](C)c2c[nH]c3ccccc23)NC(=O)[C@H](Cc2ccc(O)cc2)NC(=O)[C@H](CCCCNC(=O)[C@H]2CC[C@H](CNC(=O)CC[C@@H]3C(=O)[O][Ga]4[O]C(=O)CN5CCN(CCN3CC5)CC(=O)[O]4)CC2)N(C)C(=O)[C@H](Cc2ccccc2)NC1=O [RB-0006470] (cyclo(F[NMeK]([Trx-X7])Y[dTrp(βS-Me)][Ala(piperidin-4-yl)]T)) | 1 to 3.33
C[C@@H](O)[C@@H]1NC(=O)[C@H](CC2CCNCC2)NC(=O)[C@@H]([C@@H](C)c2c[nH]c3ccccc23)NC(=O)[C@H](Cc2ccc(O)cc2)NC(=O)[C@H](CCCCNC(=O)CCC2C(=O)[O][Ga]3[O]C(=O)CN4CCN(CCN2CC4)CC(=O)[O]3)N(C)C(=O)[C@H](Cc2ccccc2)NC1=O (stereo partly shown) [RB-0006476] | 3.33 to 10
C[C@@H](O)[C@@H]1NC(=O)[C@H](CC2CCNCC2)NC(=O)[C@@H]([C@@H](C)c2c[nH]c3ccccc23)NC(=O)[C@H](Cc2ccc(O)cc2)NC(=O)[C@H](CCCCNC(=O)CN2CCN3CCN(CC2)CC(=O)[O][Ga+][O]C(=O)C3)N(C)C(=O)[C@H](Cc2ccccc2)NC1=O [RB-0006488] (cyclo(F[NMeK](X11)Y[dTrp(βS-Me)][Ala(piperidin-4-yl)]T)) | 1 to 3.33
C[C@@H](O)[C@@H]1NC(=O)[C@H](CC2CCNCC2)NC(=O)[C@@H](Cc2n[nH]c3ccccc23)NC(=O)[C@H](Cc2ccc(O)cc2)NC(=O)[C@H](CCCCNC(=O)CN2CCN3CCN4CCN(CC2)CC(=O)[O][Lu]([O]C(=O)C3)[O]C(=O)C4)N(C)C(=O)[C@H](Cc2ccccc2)NC1=O [RB-0006553] (cyclo(F[NMeK](DOTA(Lu))Y[X8][Ala(piperidin-4-yl)]T)) | 10 to 33.3
C[C@@H](O)[C@@H]1NC(=O)[C@H](CC2CCNCC2)NC(=O)[C@@H]([C@@H](C)c2c[nH]c3ccccc23)NC(=O)[C@H](Cc2ccc(O)cc2)NC(=O)[C@H](CCCCNC(=O)C23CCC(CNC(=O)CN4CCN5CCN6CCN(CC4)CC(=O)[O][Lu]([O]C(=O)C5)[O]C(=O)C6)(CC2)CC3)N(C)C(=O)[C@H](Cc2ccccc2)NC1=O [RB-0006558] (cyclo(F[NMeK](X10)Y[dTrp(βS-Me)][Ala(piperidin-4-yl)]T)) | < 1
C[C@@H](O)[C@@H]1NC(=O)[C@H](CC2CCNCC2)NC(=O)[C@@H]([C@@H](C)c2c[nH]c3ccccc23)NC(=O)[C@H](Cc2ccc(O)cc2)NC(=O)[C@H](CCCCN(C)C(=O)CN2CCN3CCN4CCN(CC2)CC(=O)[O][Lu]([O]C(=O)C4)[O]C(=O)C3)N(C)C(=O)[C@H](Cc2ccccc2)NC1=O [RB-0006579] (cyclo(F[NMeLys(Me)](DOTA(Lu))Y[dTrp(βS-Me)][Ala(piperidin-4-yl)]T)) | 3.33 to 10
C[C@@H](O)[C@@H]1NC(=O)[C@H](CC2CCNCC2)NC(=O)[C@@H]([C@@H](C)c2c[nH]c3ccccc23)NC(=O)[C@H](Cc2ccc(O)cc2)NC(=O)[C@H](CCCCn2cc(CNC(=O)CN3CCN4CCN5CCN(CC3)CC(=O)[O][Lu]([O]C(=O)C4)[O]C(=O)C5)nn2)N(C)C(=O)[C@H](Cc2ccccc2)NC1=O [RB-0006591] | 3.33 to 10
